The data set is described as follows: physchem. The note with it: for solubility: pH 7, aqueous buffer, thermodynamic from solid. How it is done:
The acetaminophen solubility was measured at 25° C. and 5° C.

Values after ≈ are worked out from the molar mass of the structure shown.

`CC(=O)Nc1ccc(O)cc1` [acetaminophen, N-acetyl-p-aminophenol]: the solubility – broadly, how much of the substance goes into solution per volume – reads like this: (5 °C) approximately 8.86 mg/mL (≈ 58.6 mM); (25 °C) approximately 16 mg/mL (≈ 106 mM). For the same molecule, the “CAPTISOL® concentration with which a 10 mg/ml acetaminophen solution can be made” value (pH 7) is “less than 0.05 M”.

Source of the values: patent publication US12527755B2, “Formulations containing acetaminophen and sulfoalkyl ether cyclodextrin” (CyDex Pharmaceuticals, Inc., priority 2016, dated 2026).
